Test results: patent US8187508B2, “Base agent for electrical insulating oil” (Lion Corporation, priority 2005, dated 2012)

Key:
[1] = Dielectric breakdown voltage (JIS C2101); type: physicochemical
Text: (§1) It will be noted that in the following Examples and Comparative Examples, an acid value, moisture content, kinetic viscosity, flash point, oxidation stability, dielectric breakdown voltage, specific permittivity, and a content of fatty acid triglyceride are, respectively, values measured according to the following methods. • (1) Acid value: determined by a method pursuant to a potentiometric method of JIS K1557. • (2) Moisture content: determined by a method pursuant to the Carl Fisher method of JIS K0068. • (3) Kinetic viscosity: determined by a method pursuant to the Canon Fenske viscometer of JIS K2283. • (4) Flash point: determined by a method pursuant to the Cleaveland open-cup method of JIS K2265. • (5) Oxidation stability: determined by a method pursuant to the electrical insulating oil testing method of JIS C2101. • (6) Dielectric breakdown voltage: determined by a method pursuant to the electric insulating oil testing method of JIS C2101. • (7) Specific permittivity: determined by a method pursuant to the electric insulating oil testing method of JIS C2101. • (8) Content of fatty acid triglyceride: about 40 mg of a sample was placed in a 3-ml vial container, to which 0.5 ml of pyridine, 0.4 ml of hexamethyldisilazane and 0.2 ml of trimethylchlorosilane were added, followed by trimethylsilylation at 80° C. for 30 minutes and subjecting the resulting supernatant liquid to gas chromatographic analysis.

[2] = Specific permittivity (JIS C2101); type: physicochemical
Text: as §1

[3] = Flash point (Cleaveland open-cup method, JIS K2265); type: physicochemical
Text: as §1

[4] = Oxidation stability test (JIS C2101); type: physicochemical; conditions: for Oxidation stability test, 120° C. after 75 hours: acid value after 120° C.; for Oxidation stability test, Initial value: acid value before the test
Description: In order to ensure good stability to oxygen and heat, the base agent for electrical insulating oils of the invention should preferably have a total acid value of not higher than 0.5 mg of KOH/g, more preferably not higher than 0.3 mg of KOH/g, after deterioration in an oxidation stability test (120° C., 75 hours) described in JIS C2101.
as §1

[5] = Kinetic viscosity (Canon Fenske viscometer, JIS K2283); type: physicochemical
Text: as §1

human being = conditions: in vivo; cited from earlier work
rabbit = conditions: in vivo; cited from earlier work

Row | SMILES | Di-electric breakdown voltage [1] [KV/2.5 mm] | Specific permittivity (80° C.) [2] | Flash point [3] [°C] | Oxidation stability test, 120° C. after 75 hours [4] [mgKOH/g] | Oxidation stability test, Initial value [4] [mgKOH/g] | Kinetic viscosity (40° C.) [5] [mm^2/s] | Dermal irritation average point (human being) | Eye irritation (rabbit)
1 | CCCCCCCCCCCC(=O)OCC(CC)CCCC (centres unmarked) [2-ethyl hexyl laurate, 2-ethylhexyl laurate, reference compound] | 78 | 2.7 | 175 | 0.3 | 0.002 | 5 |  | 
2 | CCCCC(CC)C(=O)OCC(COC(=O)C(CC)CCCC)OC(=O)C(CC)CCCC (centres unmarked) [2-ethylhexanoic acid triglyceride] |  |  |  |  |  |  | test: average point = 0.05 | rabbit, 100%, OECD 405 method: no
3 | CCCCCCCC(=O)OCC(COC(=O)CCCCCCC)OC(=O)CCCCCCC [base agent B, caprylic acid triglyceride] | 71 | 3.8 | 235 | 0.4 | 0.002 | 12.5 |  | 
4 | CCCCC(CC)C(=O)OCC(COC(=O)C(CC)CCCC)OC(=O)C(CC)CCCC (centres unmarked) [base agent E, 2-ethylhexanoic acid triglyceride] | 73 | 3.5 | 220 | 0.2 | 0.008 | 16 |  | 
5 | CC(CC(=O)OCC(COC(=O)CC(C)CC(C)(C)C)(COC(=O)CC(C)CC(C)(C)C)COC(=O)CC(C)CC(C)(C)C)CC(C)(C)C (centres unmarked) [pentaerythritol ester of 3,5,5-trimethylhexanoic acid, reference compound] | 55 | >3.0 | >250 | 0.8 | 0.02 | 110 |  | 
